Patent US10675267B2, “Methods for detection and eradication of myeloid leukemia stem cells” (priority 2015, dated 2020)
Entries after “also recorded” stand apart in the source; their conditions may differ.

Tests used:
[1] = test system: normal cord blood CD34+ cells engrafted in Rag2−/−γc−/− mice; experiment: Normal HSPC in vivo model (cord blood CD34+ cell engrafted mice); set-up: species or system mouse; conditions: 10 mg/kg versus vehicle
Procedure: All animal studies were performed in accordance with UCSD and NIH-equivalent ethical guidelines and were approved by the Institutional Animal Care and Use Committee (IACUC protocol # S06015). For all in vivo experiments, animals of both genders were utilized. […] At 7-28 weeks post-transplant (7-36 weeks old), mice were euthanized, and peripheral blood and single cell suspensions of hematopoietic organs were analyzed for human cell engraftment by FACS. […] Treatment was initiated at 8 weeks post-transplant, and at 10 weeks post-transplant, mice were euthanized, and peripheral blood and single cell suspensions of hematopoietic organs were analyzed for human cell engraftment by FACS. […]
Flow cytometric analysis was performed on single cell suspensions from each hematopoietic tissue essentially as for primary patient samples, and frequencies of total live human CD45+ cells, CD45+ CD34+ CD38− Lin− (stem) cells, CD45+ CD34+ CD38+ Lin− (progenitor) cells, and CD45+/CD33+ (leukemic blasts) were determined in each tissue. […]

[2] = test system: AML-37 human LSC engrafted in Rag2−/−γc−/− mice; experiment: sAML PRIMAGRAFT model AML-37: FACS engraftment analysis and serial transplantation; assay type: in vivo, mouse
Procedure: All animal studies were performed in accordance with UCSD and NIH-equivalent ethical guidelines and were approved by the Institutional Animal Care and Use Committee (IACUC protocol # S06015). For all in vivo experiments, animals of both genders were utilized. Three AML PRIMAGRAFT™ models were established by transplanting AML LSC-enriched cell fractions (either CD34-selected or FACS-purified stem or progenitor cell fractions from primary patient samples) into immunocompromised Rag2^−/−γc^−/−[20] or NOD/SCID-IL2RG mice (Jackson Laboratory) constitutively expressing human SCF, GM-CSF and IL-3 (NSGS) (FIGS. 8A-8D). For all transplantations into Rag2^−/−γc^−/− animals, neonatal mice were transplanted with human cells intrahepatically as previously described, and for all transplantations into NSGS animals, sublethally irradiated (300 Rad) adult (6-8 weeks old) mice were transplanted intravenously with 1-2×10^5 CD34^+ human cells.
For in vivo treatments, a 10 mg/mL stock solution of 17S-FD-895 solubilized in DMSO was used. After randomization, AML-engrafted mice were dosed intravenously with 17S-FD-895 (5-10 mg/kg) or vehicle (for AML-08, vehicle control=15% DMSO in PBS; for AML-37, vehicle control=20% DMSO in PBS) three times over a two-week period, with the first dose given on day 1, the second on day 7, and the third on day 14. For preparation of RNA from human LSC-enriched populations, single cell suspensions from spleen and bone marrow were CD34 double-selected (over two LS selection columns, Miltenyi) and 1-2×10^5 cells were collected in lysis buffer or pooled according to treatment group for serial transplantation assays.
Mice transplanted with 1-2×10^5 CD34^+ AML LSC-enriched fractions or no-transplant controls were screened for human hematopoietic cell engraftment (CD45^+ cells) in peripheral blood by FACS starting at 7-10 weeks post transplant. At 7-28 weeks post-transplant (7-36 weeks old), mice were euthanized, and peripheral blood and single cell suspensions of hematopoietic organs were analyzed for human cell engraftment by FACS. Total cell suspensions from bone marrow and spleen were either transplanted immediately or CD34-selected for transplant into secondary recipient mice (1-2×10^5 cells per animal) to expand the cells in vivo. […] Secondary recipient mice were euthanized after 8-23 weeks, and cell suspensions from bone marrow and spleen were CD34-selected for transplant into tertiary recipients for 17S-FD-895 treatment.
The 17S-FD-895 dosing regimen was selected as the maximum number of doses possible for the treatment of three experimental groups with the amount of synthesized compound that was available, and is consistent with weekly IV dosing regimens used in clinical trials of spliceosome inhibitory compounds in patients with solid tumors. Animals were euthanized within two hours after delivery of the final dose of 17S-FD-895, and peripheral blood, spleens and bone marrows were collected for analysis of total human cell and stem and progenitor cell engraftment, and for RNA extraction for splice isoform-specific qRT-PCR.
Flow cytometric analysis was performed on single cell suspensions from each hematopoietic tissue essentially as for primary patient samples, and frequencies of total live human CD45^+ cells, and CD45^+CD34^+CD38^− Lin^− (stem) and CD45^+CD34^+CD38^+ Lin^− (progenitor) cells were determined in each tissue. Analysis of progenitor cell subpopulations was performed for AML-37, with GMP identified as CD123^+CD45RA^+, CMP as […] and megakaryocyte-erythroid progenitors (MEP) as […]. Inclusion/exclusion criteria were pre-established based on minimum CD45^+ cell engraftment rates of 1% in peripheral blood, as determined by previous PRIMAGRAFT™ experiments. […]

With `CC[C@H](OC)[C@@H](C)[C@H]1O[C@@H]1[C@@H](O)[C@H](C)/C=C/C=C(\C)[C@H]1OC(=O)C[C@H](O)CC[C@@](C)(O)[C@@H](OC(C)=O)/C=C/[C@@H]1C` (stereo in doubt) [Formula 17S-FD-895, 17S-FD-895] the “total human hematopoietic cell or HSPC survival” value [1] was “no effect”, the “common myeloid progenitor (CMP) frequency” value ([2]; AML-37, 5 or 10 mg/kg) was “slight increase” and the GMP frequency ([2]; AML-37, 5 or 10 mg/kg, hematopoietic tissues) was “reduced GMP frequency; also recorded: significantly reduced”. The “human leukemic burden in serial transplant recipients” value ([2]; recipients of CD34+ cells from 10 mg/kg group versus vehicle controls) was “marked reduction; also recorded: marked decrease”, the “reduction of human stem cells (CD45+CD34+CD38− Lin−)” value ([2]; spleens, 10 mg/kg group versus vehicle controls, p<0.05) was 68% and the “reduction of human progenitor cells (CD45+CD34+CD38+ Lin−)” value ([2]; spleens, 10 mg/kg group versus vehicle controls, p=0.08) was 80%. For the same compound, the “human HSPC frequency” value ([2]; spleens, 10 mg/kg versus vehicle) was “decrease in human HSPC frequency”.
